Measured values published in patent US20230159445A1, “STAT INHIBITORY COMPOUNDS AND COMPOSITIONS” (JANPIX LIMITED, priority 2020, published 2023).

Key:
[1] = system: normal human fibroblast (NHF) cells; test: NHF Cell Cytotoxicity Assay (CellTiter-Blue, 72 h), off-target effects; assay type: cell-based; conditions: Homo sapiens, Fibroblast; pooled NHF cells
Method in brief: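 Normal human fibroblasts (1×10^4/well, 10% FBS medium) were treated after 24 h with inhibitor at 0.097656-50 μM for 72 h at 37° C. Viability was read by CellTiter-Blue fluorescence (560/590 nm), normalized to DMSO control, and IC50 obtained from a variable-slope log(inhibitor)-response fit of four replicates.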

MV4-11 cells = test: MV4-11 Cell Cytotoxicity Assay (CellTiter-Blue, 72 h); assay type: cell-based, human; conditions: Homo sapiens, MV4-11; MV-4-11 cells
Method in brief: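 Cells seeded 24 h before treatment, then exposed 72 h at 37° C, 5% CO2 to inhibitors in triplicate, top concentration 50 μM with 1:2 serial dilutions (0.5% DMSO vehicle). Viability read by CellTiter-Blue fluorescence at 560/590 nm after 1 h.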

glutathione (GSH) = test: Reactivity Profiling with Glutathione (GSH), half-life by HPLC; conditions: 5 mM glutathione (GSH) in IMDM with 10% FBS

half-life at 25 μM (glutathione (GSH)) [h] | SMILES | IC50 [1] [nM] | IC50 (MV4-11 cells) [nM]
4.12 to 9.23 | CC(C)(C)c1cc(CN(C(=O)CN(Cc2ncccc2C(F)(F)F)S(=O)(=O)c2c(F)c(F)c(F)c(F)c2F)c2ccc(C(=O)O)cc2OC2CC2)cc(C2CC2)c1 [Compound 1119, 4-(N-(3-(tert-butyl)-5-cyclopropylbenzyl)-2-(N-((3-(trifluoromethyl)pyridin-2-yl)methyl)-(2,3,4,5,6-pentafluoro-phenyl)sulfonamido)acetamido)-3-cyclopropoxybenzoic acid] | 30000 to 100000 | 316 to 1000
9.23 to 1670 | CC(C)(C)c1cc(CN(C(=O)CN(Cc2c(F)cc(F)cc2F)S(=O)(=O)c2c(F)c(F)c(F)c(F)c2F)c2ccc(C(=O)O)cc2OC2CC2)cc(C2CC2)c1 [Compound 1122, 4-(N-(3-(tert-butyl)-5-cyclopropylbenzyl)-2-(N-(2,4,6-trifluorobenzyl)-(2,3,4,5,6-pentafluoro-phenyl)sulfonamido)acetamido)-3-cyclopropoxybenzoic acid] | 10000 to 20000 | 0.01 to 316
9.23 to 1670 | CC(C)(C)c1cc(CN(C(=O)CN(Cc2c(F)cc(F)cc2F)S(=O)(=O)c2c(F)c(F)c(F)c(F)c2F)c2ccc(C(=O)O)cc2C2CC2)cc(C2CC2)c1 [Compound 1123, 4-(N-(3-(tert-butyl)-5-cyclopropylbenzyl)-2-(N-(2,4,6-trifluorobenzyl)-(2,3,4,5,6-pentafluoro-phenyl)sulfonamido)acetamido)-3-cyclopropylbenzoic acid] | 1 to 10000 | 0.01 to 316
4.12 to 9.23 | O=C(O)c1ccc(N(Cc2cc(C3CC3)cc(C3CC3)c2)C(=O)CN(Cc2ccccc2C(F)(F)F)S(=O)(=O)c2c(F)c(F)c(F)c(F)c2F)c(OC2CC2)c1 [Compound 1141] | 20000 to 30000 | 0.01 to 316
4.12 to 9.23 | CC(C)(C)c1cc(CN(C(=O)CN(Cc2cnccc2C(F)(F)F)S(=O)(=O)c2c(F)c(F)c(F)c(F)c2F)c2ccc(C(=O)O)cc2OC2CC2)cc(C2CC2)c1 [Compound 1142, 4-(N-(3-(tert-butyl)-5-cyclopropylbenzyl)-2-(N-((4-(trifluoromethyl)pyridin-3-yl)methyl)-(2,3,4,5,6-pentafluoro-phenyl)sulfonamido)acetamido)-3-cyclopropoxybenzoic acid] | 20000 to 30000 | 0.01 to 316
4.12 to 9.23 | COc1cc(C(=O)O)ccc1N(Cc1cc(C2CC2)cc(C(C)(C)C)c1)C(=O)CN(Cc1ccc(F)cc1Cl)S(=O)(=O)c1c(F)c(F)c(F)c(F)c1F [Compound 1143, 4-(N-(3-(tert-butyl)-5-cyclopropylbenzyl)-2-(N-(2-chloro-4-fluorobenzyl)-(2,3,4,5,6-pentafluorophenyl)sulfon-amido)acetamido)-3-methoxybenzoic acid] | 10000 to 20000 | 0.01 to 316
2.37 to 4.12 | COc1cc(C(=O)O)ccc1N(Cc1cc(C2CC2)cc(C(C)(C)C)c1)C(=O)CN(Cc1c(F)cccc1F)S(=O)(=O)c1c(F)c(F)c(F)c(F)c1F [Compound 1145, 4-(N-(3-(tert-butyl)-5-cyclopropylbenzyl)-2-(N-(2,6-difluorobenzyl)-(2,3,4,5,6-pentafluorophenyl)sulfon-amido)acetamido)-3-methoxybenzoic acid] | 1 to 10000 | 0.01 to 316
0.00167 to 2.37 | COc1cc(C(=O)O)ccc1N(Cc1cc(C2CC2)cc(C2CC2)c1)C(=O)CN(Cc1cnccc1C(F)(F)F)S(=O)(=O)c1c(F)c(F)c(F)c(F)c1F [Compound 1146, 4-(N-(3,5-dicyclopropylbenzyl)-2-(N-((4-(trifluoromethyl)pyridin-3-yl)methyl)-(2,3,4,5,6-pentafluoro-phenyl)sulfonamido)acetamido)-3-methoxybenzoic acid] | 1 to 10000 | 316 to 1000
2.37 to 4.12 | COc1cc(C(=O)O)ccc1N(Cc1cc(C2CC2)cc(C2CC2)c1)C(=O)CN(Cc1c(F)cc(F)cc1F)S(=O)(=O)c1c(F)c(F)c(F)c(F)c1F [Compound 1148, 4-(N-(3,5-dicyclopropylbenzyl)-2-(N-(2,4,6-trifluorobenzyl)-(2,3,4,5,6-pentafluoro-phenyl)sulfonamido)acetamido)-3-methoxybenzoic acid] | 1 to 10000 | 0.01 to 316
4.12 to 9.23 | O=C(O)c1ccc(N(Cc2cc(C3CC3)cc(C3CC3)c2)C(=O)CN(Cc2ncccc2C(F)(F)F)S(=O)(=O)c2c(F)c(F)c(F)c(F)c2F)c(OC2CC2)c1 [Compound 1164, 3-cyclopropoxy-4-(N-(3,5-dicyclopropylbenzyl)-2-(N-((3-(trifluoromethyl)pyridin-2-yl)methyl)-(2,3,4,5,6-pentafluoro-phenyl)sulfonamido)acetamido)benzoic acid] | 20000 to 30000 | 316 to 1000
2.37 to 4.12 | COc1cc(C(=O)O)ccc1N(Cc1cc(C2CC2)cc(C2CC2)c1)C(=O)CN(Cc1ccc(F)cc1Cl)S(=O)(=O)c1c(F)c(F)c(F)c(F)c1F [Compound 1166, 4-(2-(N-(2-chloro-4-fluorobenzyl)-(2,3,4,5,6-pentafluorophenyl)sulfon-amido)-N-(3,5-dicyclopropylbenzyl)acetamido)-3-methoxybenzoic acid] | 1 to 10000 | 0.01 to 316
4.12 to 9.23 | O=C(O)c1ccc(N(Cc2cc(C3CC3)cc(C3CC3)c2)C(=O)CN(Cc2ccc(F)cc2Cl)S(=O)(=O)c2c(F)c(F)c(F)c(F)c2F)c(OC2CC2)c1 [Compound 1167, 4-(2-(N-(2-chloro-4-fluorobenzyl)-(2,3,4,5,6-pentafluorophenyl)sulfon-amido)-N-(3,5-dicyclopropylbenzyl)acetamido)-3-cyclopropoxybenzoic acid] | 10000 to 20000 | 0.01 to 316
4.12 to 9.23 | O=C(O)c1ccc(N(Cc2cc(C3CC3)cc(C3CC3)c2)C(=O)CN(Cc2c(F)cc(F)cc2F)S(=O)(=O)c2c(F)c(F)c(F)c(F)c2F)c(OC2CC2)c1 [Compound 1178, 3-cyclopropoxy-4-(N-(3,5-dicyclopropylbenzyl)-2-(N-(2,4,6-trifluorobenzyl)-(2,3,4,5,6-pentafluoro-phenyl)sulfonamido)acetamido)benzoic acid] | 10000 to 20000 | 0.01 to 316
9.23 to 1670 | O=C(O)c1ccc(N(Cc2cc(C3CC3)cc(C3CC3)c2)C(=O)CN(Cc2c(F)c(F)c(F)c(F)c2F)S(=O)(=O)c2c(F)c(F)c(F)c(F)c2F)c(OC2CC2)c1 [Compound 1183, 3-cyclopropoxy-4-(N-(3,5-dicyclopropylbenzyl)-2-(N-((perfluorophenyl)methyl)-(2,3,4,5,6-pentafluoro-phenyl)sulfonamido)acetamido)benzoic acid] | 1 to 10000 | 0.01 to 316
2.37 to 4.12 | CC(C)(C)c1cc(CN(C(=O)CN(Cc2cnccc2C(F)(F)F)S(=O)(=O)c2c(F)c(F)c(F)c(F)c2F)c2ccc(C(=O)O)cc2C2CC2)cc(C2CC2)c1 [Compound 1186, 4-(N-(3-(tert-butyl)-5-cyclopropylbenzyl)-2-(N-((4-(trifluoromethyl)pyridin-3-yl)methyl)-(2,3,4,5,6-pentafluoro-phenyl)sulfonamido)acetamido)-3-cyclopropylbenzoic acid] | 1 to 10000 | 0.01 to 316
9.23 to 1670 | CC(C)(C)c1cc(CN(C(=O)CN(Cc2ccc(F)cc2Cl)S(=O)(=O)c2c(F)c(F)c(F)c(F)c2F)c2ccc(C(=O)O)cc2OC2CC2)cc(C2CC2)c1 [Compound 1189, 4-(N-(3-(tert-butyl)-5-cyclopropylbenzyl)-2-(N-(2-chloro-4-fluorobenzyl)-(2,3,4,5,6-pentafluorophenyl)sulfon-amido)acetamido)-3-cyclopropoxybenzoic acid] | 10000 to 20000 | 0.01 to 316
9.23 to 1670 | O=C(O)c1ccc(N(Cc2cc(C3CC3)cc(N3CCCC3)c2)C(=O)CN(Cc2c(F)cc(F)cc2F)S(=O)(=O)c2c(F)c(F)c(F)c(F)c2F)c(OC2CC2)c1 [Compound 1191, 3-cyclopropoxy-4-(N-(3-cyclopropyl-5-(pyrrolidin-1-yl)benzyl)-2-(N-(2,4,6-trifluorobenzyl)-(2,3,4,5,6-pentafluoro-phenyl)sulfonamido)acetamido)benzoic acid] | 1 to 10000 | 316 to 1000
9.23 to 1670 | O=C(O)c1ccc(N(Cc2cc(C3CC3)cc(N3CCCC3)c2)C(=O)CN(Cc2ccc(F)cc2Cl)S(=O)(=O)c2c(F)c(F)c(F)c(F)c2F)c(OC2CC2)c1 [Compound 1192, 4-(2-(N-(2-chloro-4-fluorobenzyl)-(2,3,4,5,6-pentafluorophenyl)sulfon-amido)-N-(3-cyclopropyl-5-(pyrrolidin-1-yl)benzyl)acetamido)-3-cyclopropoxybenzoic acid] | 10000 to 20000 | 316 to 1000
0.00167 to 2.37 | O=C(O)c1ccc(N(Cc2cc(C3CC3)cc(C3CC3)c2)C(=O)CN(Cc2cnccc2C(F)(F)F)S(=O)(=O)c2c(F)c(F)c(F)c(F)c2F)c(C2CC2)c1 [Compound 1194, 3-cyclopropyl-4-(N-(3,5-dicyclopropylbenzyl)-2-(N-((4-(trifluoromethyl)pyridin-3-yl)methyl)-(2,3,4,5,6-pentafluoro-phenyl)sulfonamido)acetamido)benzoic acid] | 1 to 10000 | 0.01 to 316
2.37 to 4.12 | O=C(O)c1ccc(N(Cc2cc(C3CC3)cc(C3CC3)c2)C(=O)CN(Cc2c(F)cc(F)cc2F)S(=O)(=O)c2c(F)c(F)c(F)c(F)c2F)c(C2CC2)c1 [Compound 1195, 3-cyclopropyl-4-(N-(3,5-dicyclopropylbenzyl)-2-(N-(2,4,6-trifluorobenzyl)-(2,3,4,5,6-pentafluoro-phenyl)sulfonamido)acetamido)benzoic acid] | 1 to 10000 | 0.01 to 316
